Data taken from PMC10534486 (Pharmaceutics, 2023).
Read-outs that look alike come from different tables or passages of the source.

Experiments:
[1] = for CLR estimated from the free fraction in plasma: intravenous
in vitro = in vitro ADME, rat
Method: […]. […] […].
The binding percentage (%) was calculated using the equation: Binding percentage %=CT−CF/CT×100 where CF represents the concentration of free drug measured in the ultrafiltrate and CT is the total drug concentration introduced into the ultrafiltration system before centrifugation.

[2] = Distribution of tofacitinib in tissues 30 min after intravenous administration; assay type: in vivo; details: Sprague-Dawley, rat; all tissues of CON and PHL rats, 30 min after intravenous 10 mg/kg; read-out: Tissue-to-plasma (T/P) ratios
Method: . Tissue samples, including fat, brain, kidney, heart, liver, large intestine, mesentery, lung, small intestine, muscle, stomach, and spleen, were removed from each rat, rinsed in phosphate-buffered saline (PBS, pH 7.4), and blotted dry with paper towels to remove any remaining blood. Approximately 1 g of each tissue was added to 4 volumes of homogenizing buffer, followed by homogenization (IKA Labortechnik, Staufen, Germany) and centrifugation at 8000× g for 10 min.

[3] = Vmax, Km and CLint for disappearance of tofacitinib in intestinal microsomes
[4] = Pharmacokinetics after oral administration of 20 mg/kg to CON and PHL rats; assay type: in vivo, Sprague–Dawley rats; details: for AUC(0-inf) / Cmax / CL renal / half-life / k el / bioavailability: po, 20 mg/kg; for CL renal: read-out: CLR (time-averaged renal clearance); for half-life: read-out: Terminal half-life; for k el: read-out: k (elimination rate constant) (converted); for bioavailability: read-out: F (absolute oral bioavailability)
Method: The rats were randomly assigned to one of two experimental groups: a control (CON) and a P-407-induced hyperlipidemia (PHL) group. P-407 was dissolved in cold sterile 0.9% NaCl-injectable solution and stored in a refrigerator for at least 6 h to ensure complete dissolution. Rats in the PHL group received a single intraperitoneal injection of 1 g/kg P-407, whereas rats in the CON group received a single intraperitoneal injection of an equal volume of 0.9% NaCl. Hyperlipidemia was defined as a total cholesterol concentration higher than 220 mg/dL or a low-density lipoprotein (LDL) cholesterol concentration higher than 160 mg/dL [29, 30].
Rats were anesthetized with ketamine (100 mg/kg) prior to surgical procedures. […] Prior to oral investigation, the rats were fasted overnight and only the carotid artery was cannulated for blood collection. The rats were allowed to recover for 3–4 h after surgical procedures prior to the performance of subsequent experiments.
. Blood samples (0.12 mL) were obtained at 0 (prior to drug administration), 1, 5, 15, 30, 45, 60, 90, 120, 180, and 240 min through the carotid artery. […]. Blood samples (0.12 mL) were collected through the carotid artery at 0 (prior to drug administration), 5, 15, 30, 45, 60, 90, 120, 180, 240, 360, and 480 min. All blood samples were centrifuged for 1 min at 8000× g and plasma (50 μL) samples were collected. After the blood samples were obtained, 0.3 mL of heparinized 0.9% NaCl solution (20 IU/mL) was immediately injected into the carotid artery to prevent blood clotting.
At 24 h, the rats were sacrificed and the abdomen of each was opened. The entire gastrointestinal tract of each rat was excised, cut into small pieces, and immersed in a beaker containing 50 mL of methanol. After evenly mixing the contents in the beaker, a 50 μL aliquot of each supernatant was withdrawn. The volumes of urine samples collected for 24 h after drug administration were measured and two 100 μL aliquots of each were collected.
The following pharmacokinetic parameters were determined by non-compartmental analysis (WinNonlin, Pharsight Co., Mountain View, CA, USA) using standard methods: terminal half-life, time-averaged total body (CL), renal (CLR), and nonrenal (CLNR) clearances, apparent volume of distribution at steady state (Vss), area under the plasma concentration–time curve from zero to infinity (AUC0–∞), and elimination rate constant (k). AUC0–∞ was calculated using the trapezoidal rule extrapolation method, whereas the maximum plasma concentration (Cmax) and time required to reach Cmax (Tmax) were determined directly from the plasma concentration–time curves. (R3-3) The absorption rate constants (ka) for oral administration were also estimated under the assumption of one-compartment model and first-order elimination.

[5] = cited from earlier work
in vivo = details: Sprague-Dawley, rat, plasma, iv, 10 mg/kg; for clearance: CL (time-averaged total body clearance); for CL renal: CLR (time-averaged renal clearance); for MRT: MRT (mean residence time); for half-life: Terminal half-life; for Vd: Vss (apparent volume of distribution at steady state); for k el: k (elimination rate constant)
P-gp = tested on: P-gp; set-up: method as in PMID 24704892; details: cited from earlier work
[6] = Vmax, Km and CLint for disappearance of tofacitinib in hepatic microsomes
[7] = Sprague-Dawley, rat, plasma, CON rats (n = 6)
[8] = Sprague-Dawley, rat, plasma, PHL rats (n = 7)
[9] = oral 20 mg/kg, CON rats (n = 6)
[10] = oral 20 mg/kg, PHL rats (n = 7)

AUC0–∞ higher in PHL than in CON rats ([1]; intravenous 10 mg/kg): 73.5% | CL slower in PHL than in CON rats ([1]; intravenous 10 mg/kg): 43.0% | Ae0–24 h (drug excreted unchanged in urine for 24 h) ([1]; intravenous 10 mg/kg, CON rats (n = 7)): 4.06 ± 1.89 % of dose | Ae0–24 h (drug excreted unchanged in urine for 24 h) ([1]; intravenous 10 mg/kg, PHL rats (n = 6)): 5.76 ± 2.53 % of dose | CLR estimated from the free fraction in plasma ([1]; CON rats): 4.66 mL/min/kg | CLR estimated from the free fraction in plasma ([1]; PHL rats): 6.05 mL/min/kg | recovery at 30 min, 5 µg/mL (in vitro; pH 7.4): 100 ± 2.84% | Free (unbound to plasma proteins) fraction in plasma (in vitro; rat, plasma, 30 min, 5 µg/mL): 40.8% | fraction unbound at 30 min, 5 µg/mL (in vitro; rat, plasma, Free (unbound to plasma proteins) fraction in plasma): 0.667 | fraction unbound at 30 min, 5 µg/mL (in vitro; rat, plasma, Plasma protein binding): 0.408 | Kp at 30 min [2]: < 1 | CLint lower in PHL than in CON rats [3]: 51.3% | Km, PHL versus CON rats [3]: comparable | AUC(0-inf) [4, 7]: 4800 ng·h/mL | Cmax [4, 7]: 2960 ± 643 ng/mL | CL renal [4, 7]: 3.52 ± 1.8 mL/min/kg | half-life [4, 7]: 62.1 ± 16.7 min | k el [4, 7]: 0.000197 s⁻¹ | bioavailability ([4]; Sprague-Dawley, rat, plasma, CON rats): 53.7% | AUC(0-inf) [4, 8]: 7950 ng·h/mL | Cmax [4, 8]: 4750 ± 1180 ng/mL | CL renal [4, 8]: 1.28 ± 0.786 mL/min/kg | half-life [4, 8]: 84.3 ± 21.2 min | k el [4, 8]: 0.000145 s⁻¹ | bioavailability ([4]; Sprague-Dawley, rat, plasma, PHL rats): 51.4% | Tmax ([4]; Sprague-Dawley, rat, plasma, oral 20 mg/kg, PHL rats (n = 7)): 30 min | AUC0–∞ higher in PHL than in CON rats ([4]; oral 20 mg/kg): 65.6% | CLR lower in PHL than in CON rats ([4]; oral 20 mg/kg): 63.6% | Cmax higher in PHL than in CON rats ([4]; oral 20 mg/kg): 60.5% | Ae0–24 h (drug excreted unchanged in urine for 24 h) [4, 9]: 4.90 ± 1.95 % of dose | ka (absorption rate constant) [4, 9]: 0.127 ± 0.0389 min⁻¹ | Ae0–24 h (drug excreted unchanged in urine for 24 h) [4, 10]: 3.02 ± 1.87 % of dose | ka (absorption rate constant) [4, 10]: 0.156 ± 0.0885 min⁻¹ | Time after dosing at which drug was detected in plasma ([4]; oral 20 mg/kg, all CON and PHL rats): 5 min | AUC(0-inf) (in vivo; AUC (AUC0–∞), CON rats (n = 7)): 4470 ng·h/mL | clearance (in vivo; CON rats (n = 7)): 37.9 ± 4.85 mL/min/kg | clearance (in vivo; PHL rats (n = 6)): 21.6 ± 1.13 mL/min/kg | CL renal (in vivo; CON rats (n = 7)): 3.11 ± 1.58 mL/min/kg | CL renal (in vivo; PHL rats (n = 6)): 2.47 ± 1.1 mL/min/kg | MRT (in vivo; CON rats (n = 7)): 22.6 min | MRT (in vivo; PHL rats (n = 6)): 22.7 min | half-life (in vivo; CON rats (n = 7)): 29.6 ± 4.55 min | half-life (in vivo; PHL rats (n = 6)): 34.5 ± 2.29 min | Vd (in vivo; CON rats (n = 7)): 0.847 ± 0.191 L/kg | Vd (in vivo; PHL rats (n = 6)): 0.49 ± 0.136 L/kg | k el (in vivo; CON rats (n = 7)): 0.000398 s⁻¹ | k el (in vivo; PHL rats (n = 6)): 0.000337 s⁻¹ | CLint lower in PHL than in CON rats [6]: 36.9% | Km, PHL versus CON rats [6]: did not differ significantly
SMILES: C[C@@H]1CCN(C(=O)CC#N)C[C@@H]1N(C)c1ncnc2[nH]ccc12 [tofacitinib, Tofacitinib]
Terminal half-life [5]: approximately 3.3 h | P-gp substrate status (P-gp): substrate of P-gp
